Assay results reported in patent US5547972A, “Therapeutic agents useful for treating inflammatory diseases” (The Boots Company PLC, priority 1991, dated 1996).
Where a name gives a salt, the structure may show the parent alone. Read-outs that look alike come from different tables or passages of the source.

Assays:
platelet aggregation = conditions: in vitro; Il Farmaco, 44 (5), 495-502, 1989; cited from earlier work
[1] = alleged in literature; cited from earlier work
mice = conditions: in mice; cited from earlier work
[2] = tested on: Zymosan Stimulated Macrophaqes; experiment: Test A: Inhibition of Arachidonic Acid Release from Zymosan Stimulated Macrophages; assay type: cell-based, mouse (female MF1); conditions: inhibition of arachidonic acid release, six concentrations (100, 50, 20, 10, 5 and 1 μM), 5 h with zymosan, read-out: Test A IC50
Method in brief: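 Peritoneal macrophages from female MF1 mice, labelled overnight with [3H]-arachidonic acid (1.6 μCi/ml final), adherent cells pretreated 24 h with drug, then stimulated 5 h with fresh drug plus stimulus at 37° C. Released label counted by scintillation; net stimulated release inhibition at 1–100 μM gives IC50.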

[3] = tested on: Carrageenan-induced rat paw oedema; experiment: Test B: Carrageenan-induced rat paw oedema test; assay type: in vivo, rat (female); conditions: inhibition of paw oedema, 1 h before carrageenan, 3 h after injection; for inhibition in vivo at 100 mg/kg: Rattus norvegicus, po, 3 h; for Test B % inhibition at 100 mg/kg: oral
Protocol: Carrageenan-induced rat paw oedema test
Female rats, weight range 125-150 g were fasted overnight. One of the hind legs of each animal was marked with a line at the connection between the cuboid/navicular and calcaneus/talus bones. Groups of six rats were orally dosed at 10 ml/kg, in random order, with a given dose of the test compound given as a solution or suspension in 10% (w/v) aqueous acacia solution.
One hour after dosing, 0.1 ml of 1% (w/v) sterile carrageenan λ in normal saline was injected deeply into the plantar surface of the marked hind foot of each rat. The volume of the foot (up to the marked line) was measured immediately after injection using duplicate water displacement readings. Three hours after injection the foot volume was measured again and the percentage increase in foot volume relative to the initial reading was calculated.
The increase in foot volume (i.e. the degree of oedema) in drug treated animals when compared with that in the drug untreated control gave the degree of inhibition of paw oedema by the drug.
Compounds were considered to be active in this test if they produced a 20% or greater inhibition of paw oedema in at least two out of three tests after oral dosing at 100 mg/kg. Statistical significance was assessed using the Student't test for single dose studies and Dunnett's test for multiple dose studies. More advantageous compounds were active in both Tests A and B,

Compound | IC50 ([2]; Mus musculus, Macrophage, 5 h) [µM] | inhibition in vivo at 100 mg/kg [3] [%] | also measured
CC(CCn1ccnc1)NCc1ccccc1 (centres unmarked) [Compound A] | – | – | inhibitory effect on platelet aggregation (platelet aggregation): inhibitory effect on platelet aggregation in vitro
CCC(NCC(C)N1CCOCC1)c1ccc(Cl)c(Cl)c1 (stereo not drawn) [N-[2-(4-Morpholino)propyl]-α-ethyl-3,4-dichlorobenzylamine] | – | – | antiinflammatory activity [1]: antiinflanmmtory activity; undesirable side-effects (mice): wide range of undesirable side-effects in mice
CC(NCCCn1ccnc1)c1ccc(Cl)c(F)c1 (centres unmarked) [Example 10, N-[1-(4-Chloro-3-fluorophenyl)ethyl]-3-(imidazol-1-yl)propylamine dihydrochloride] | 40 | 49 | –
CC(NCCCCCn1ccnc1)c1ccc(Cl)cc1 (centres unmarked) [Example 55, N-[1-(4-Chlorophenyl)ethyl]-5-(imidazol-1-yl)pentylamine dioxalate] | 32 | 45 | –
Cc1cn(CCCNCc2ccc(Cl)cc2)cn1 [Example 44, N-(4-Chlorobenzyl)-3-(4-methylimidazol-1-yl)propylamine dihydrochloride] | 30 | 8 | –
CC(NCCCn1ccnc1)c1ccc(Cl)cc1 (single isomer, unassigned; (-)) [Example 92, (-) N-[1-(4-chlorophenyl)ethyl]-3-(imidazol-1-yl)propylamine (-)-ditartrate] | – | – | IC50 [2]: 20 µM; Test B % inhibition at 100 mg/kg [3]: 48%
CC(NCCCn1ccnc1)c1ccc(Cl)cc1.Cl.Cl (single isomer, unassigned; (-)) [Example 57, (-)N-[1-(4-Chlorophenyl)ethyl]-3-(imidazol-1-yl)propylamine dihydrochloride] | – | – | IC50 ([2]; dihydrochloride): 20 µM; Test B % inhibition at 100 mg/kg ([3]; dihydrochloride): 48%
CC(NCCCn1ccnc1)c1ccc(Cl)cc1Cl (centres unmarked) [Example 2, N-[1-(2,4-Dichlorophenyl)ethyl]-3-(imidazol-1-yl)propylamine] | 39 | 37 | –
CC(NCCCn1ccnc1)c1ccc(C(F)(F)F)cc1 (centres unmarked) [Example 11, 3-(Imidazol-1-yl)-N-[1-(4-trifluoromethylphenyl)ethyl]propylamine] | 45 | 34 | –
CCc1nccn1CCCNC(C)c1ccc(Cl)cc1 (centres unmarked) [Example 53, N-[1-(4-Chlorophenyl)ethyl]-3-(2-ethylimidazol-1-yl)propylamine dihydrochloride] | 31 | 27 | –

Further molecules by falling IC50 ([2]; Mus musculus, Macrophage, 5 h), results first:

IC50 ([2]; Mus musculus, Macrophage, 5 h) [µM] | Compound | inhibition in vivo at 100 mg/kg [3] [%] | also measured
24 | CC(C)(NCCCn1cncc1CO)c1ccc(Cl)c(Cl)c1 [Example 84, 1-{3-[1-(3,4-Dichlorophenyl)-1-methylethylamino]propyl}imidazol-5-ylmethanol] | 19 | –
21 | Clc1ccc(CNCCCn2ccnc2)cc1Cl [Example 35, N-(3,4-dichlorobenzyl)-3-(imidazol-1-yl)propylamine] | 47 | –
21 | CC(C)(NCCCCCn1ccnc1)c1ccc(Cl)cc1 [Example 62, N-[1-(4-chlorophenyl)-1-methylethyl]-5-(imidazol-1-yl)pentylamine] | 42 | –
15 | CCC(CC)(NCCCn1ccnc1)c1ccc(Cl)cc1 [Example 76, 1-(4-Chlorophenyl)-1-ethyl-3'-(imidazol-1-yl)dipropylamine dihydrochloride] | 31 | –
9 | Cc1nccn1CCCNC(C)(C)c1ccc(Cl)cc1 [Example 60, N-[1-(4-chlorophenyl)-1-methylethyl]-3-(2-methylimidazol-1-yl)propylamine] | 59 | –
